The text below walks through data of PMC12670405, “Second-Generation AURKA-Targeting PROTACs: Structural Optimization toward in Vivo Degradation in Neuroblastoma” (Journal of Medicinal Chemistry, 2025).

In one assay the target is T1, NanoLuc-AURKA (Homo sapiens, UniProt O14965).
T1 construct: Plasmids encoding full-length wild-type AURKA fused to Nano-Luc; host or cells: HEK293T
T1 sequence (O14965 1-403): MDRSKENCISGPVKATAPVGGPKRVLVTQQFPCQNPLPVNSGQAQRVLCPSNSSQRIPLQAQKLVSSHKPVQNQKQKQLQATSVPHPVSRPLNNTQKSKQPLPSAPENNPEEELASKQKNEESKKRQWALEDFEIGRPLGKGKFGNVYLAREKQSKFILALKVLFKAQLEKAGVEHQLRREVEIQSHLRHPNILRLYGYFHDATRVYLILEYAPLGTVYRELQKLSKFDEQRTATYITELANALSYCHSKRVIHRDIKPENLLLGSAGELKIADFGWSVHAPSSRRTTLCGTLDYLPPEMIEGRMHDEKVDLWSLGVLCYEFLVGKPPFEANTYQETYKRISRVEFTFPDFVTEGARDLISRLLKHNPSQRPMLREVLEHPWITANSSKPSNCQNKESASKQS
Description: NanoBRET target engagement, permeabilized mode. It counts as binding. As to conditions: permeabilized HEK293T; read-out: NanoBRET IC50, tracer displacement from NanoLuc-AURKA. On the procedure: The NanoBRET Target Engagement Assay (Promega) was performed according to the recommended instructions from the manufacturer. Plasmids encoding full-length wild-type AURKA fused to Nano-Luc via AURKA’s C-terminus (Promega, #NV1041) were transfected into HEK293T cells using FuGENE HD (Promega, #E2312). […] The plate was mixed at 900 rpm for 15 s, using an orbital shaker. For the permeabilized-mode, digitonin (Sigma-Aldrich, #D141) was additionally added at a final concentration of 50 μg/mL. Test compounds were subsequently administered in duplicate using the D300e digital dispenser (Tecan), followed by incubation for 2 h (37 °C, 5% CO2). To measure BRET, nanoglo substrate and extracellular nanoluc inhibitor (only in live-mode) (Promega #N2540) were added, and luminescence was measured using the GloMax Discover Microplate Reader (Promega) with a luminescence filter pair of 450 nm (BP filter, donor) and 600 nm (LP filter, acceptor). The NanoBRET ratio was calculated using the following formula: BRET ratio = 1000*[(acceptor signal/donor signal)with tracer – (acceptor signal/donor signal)no tracer]. Relative BRET ratios (%) were generated by normalizing to the negative DMSO control. The experiment was performed once with 2 replicate samples.
All dose–response curves were computed on GraphPad Prism using the Variable Slope (four parameters) equation. Absolute half-maximal degradation (DC50), growth inhibitory (GI50) and enzymatic inhibitory (IC50) concentrations, as well as inhibition constants (Ki) were derived from dose–response curves via interpolation. Statistical tests were performed on GraphPad Prism and detailed in the figure legends. Unless otherwise stated, “n” in the figure legends indicates the number of independent experiments conducted at different times.

The next assay concerns SJNB-1. Description: IncuCyte live-cell imaging, antiproliferative effect. It counts as cell-based. To be noted: Homo sapiens, 72 h, read-out: Cell GI50 72h. On the procedure: The use of human cell lines in this study was approved by the Ethics Committee of Ghent University Hospital (EC/029-2022/sds). Human neuroblastoma cell lines NGP, IMR-32, SJNB-8, SK-N-BE(2)-C, SJNB-1, SK-N-SH and SK-N-AS, as well as benign immortalized cell lines RPE and HEK293T were either bought commercially or obtained through research laboratories. The neuroblastoma cell lines and HEK293T were cultured in RPMI 1640 medium (Gibco, #52400041) supplemented with 10% fetal bovine serum (Sigma-Aldrich, #F0804), 2 mM L-glutamine (Gibco, #11548876), and 100 IU/mL penicillin/streptomycin (Gibco, #11548876). RPE cells were cultured in DMEM-F12 (Gibco, #11594426), supplemented with 10% fetal bovine serum, 2 mM L-glutamine and 100 IU/mL penicillin/streptomycin. Screening for mycoplasma contamination occurred routinely on the cells. […]
Neuroblastoma cells were seeded in 384-well plates at different densities ranging from 1200 to 5000 cells/well and allowed to adhere overnight. […] Compound treatment was performed using the D300e Digital Dispenser (Tecan) in duplicate or triplicate and cell confluency was monitored over time using the IncuCyte Live-cell imaging system (Sartorius). […] Mean normalized confluences were calculated from 3 individual experiments. […]

With `Cc1cc(Nc2ccc(F)c(CC3(C(=O)N4CCC(CN5CCN(c6ccc(N7CCC(=O)NC7=O)cn6)CC5)CC4)CCN(Cc4cccc(Cl)c4F)CC3)n2)n[nH]1` [SK4454], the IC50 at NanoLuc-AURKA is about 0.02 µM. For the same compound, the GI50 with SJNB-1 came out at 13.4 µM.
Take `Cc1cc(Nc2ccc(F)c(CC3(C(=O)N4CCC(F)(CN5CCN(c6ccc(N7CCC(=O)NC7=O)cn6)CC5)CC4)CCN(Cc4cccc(Cl)c4F)CC3)n2)n[nH]1` [SK5527]: the IC50 at NanoLuc-AURKA was about 0.02 µM. In addition, the GI50 in the assay with SJNB-1 was 8.63 µM.
